ChEMBL document CHEMBL5725341, “Tricyclic compounds for use as kinase inhibitors” (2017)

Tests used:
[1] = target: Serine/threonine-protein kinase pim-3 (Homo sapiens, UniProt Q86V86); experiment: PIM-3 Biochemical Assay: The biochemical assay to measure PIM-3 activity relies on the ADP Hunter assay kit (DiscoveRx Corp., Cat. #90-0077), that determines the amount of ADP as direct product of the kinase enzyme activity.
[2] = target: Serine/threonine-protein kinase pim-1 (Homo sapiens, UniProt P11309); experiment: PIM-1 Biochemical Assay: The biochemical assay to measure PIM-1 activity relies on the ADP Hunter assay kit (DiscoveRx Corp., Cat. #90-0077), that determines the amount of ADP as direct product of the kinase enzyme activity.
[3] = target: Serine/threonine-protein kinase pim-2 (Homo sapiens, UniProt Q9P1W9); experiment: PIM-2 Biochemical Assay: The biochemical assay to measure PIM-2 activity relies on the ADP Hunter assay kit (DiscoveRx Corp., Cat. #90-0077), that determines the amount of ADP as direct product of the kinase enzyme activity.
Chain of Serine/threonine-protein kinase pim-2 (Q9P1W9 whole entry): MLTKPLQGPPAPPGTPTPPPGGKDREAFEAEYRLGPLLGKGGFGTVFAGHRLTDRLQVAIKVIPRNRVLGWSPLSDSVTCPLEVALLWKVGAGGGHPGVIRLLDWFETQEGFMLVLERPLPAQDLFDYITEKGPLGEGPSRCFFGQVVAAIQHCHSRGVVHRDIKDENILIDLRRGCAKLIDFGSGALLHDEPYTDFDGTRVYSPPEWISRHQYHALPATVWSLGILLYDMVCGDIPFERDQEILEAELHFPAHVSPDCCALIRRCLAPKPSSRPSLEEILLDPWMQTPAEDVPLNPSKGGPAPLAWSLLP

Chain of Serine/threonine-protein kinase pim-1 (P11309 whole entry): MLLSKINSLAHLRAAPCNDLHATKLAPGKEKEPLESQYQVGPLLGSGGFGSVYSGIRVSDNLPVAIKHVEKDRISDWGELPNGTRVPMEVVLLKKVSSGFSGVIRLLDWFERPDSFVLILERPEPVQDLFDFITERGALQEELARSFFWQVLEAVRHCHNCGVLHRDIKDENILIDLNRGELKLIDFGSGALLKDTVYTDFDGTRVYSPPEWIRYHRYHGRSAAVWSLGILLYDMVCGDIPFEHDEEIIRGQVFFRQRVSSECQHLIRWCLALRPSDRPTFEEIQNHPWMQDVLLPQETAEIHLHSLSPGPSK

Structure (SMILES) | IC50 [1] | IC50 [2] | IC50 [3]
CN1CCOc2c(NCCN3CCNCC3)nn3c(-c4cccc(OC(F)(F)F)c4)nnc3c21 | – | – | > 1000 nM
CN1CCOc2c(NCCN3CCOCC3)nn3c(-c4cccc(OC(F)(F)F)c4)nnc3c21 | – | > 1000 nM | > 1000 nM
CN1CCOc2c(N3CCC(N(C)C)CC3)nn3c(-c4cccc(OC(F)(F)F)c4)nnc3c21 | – | > 1000 nM | > 1000 nM
CN1CCOc2c1c(NCC13CCN(CC1)C3)nn1c(-c3cccc(OC(F)(F)F)c3)nnc21 | – | < 100 nM | > 1000 nM
CN1CCN(CCNc2nn3c(-c4cccc(OC(F)(F)F)c4)nnc3c3c2OCCN3C)CC1 | – | > 1000 nM | > 1000 nM

Results, then the compound that gave them:

IC50 [1] | IC50 [2] | IC50 [3] | Structure (SMILES)
< 100 nM | < 100 nM | – | CN1CCOc2c1c(NCC1CC3(CCNCC3)C1)nn1c(-c3cccc(OC(F)(F)F)c3)nnc21
– | < 100 nM | – | CN1CCOc2c1c(NCCN1CCOCC1)nn1c(-c3cccc(OC(F)(F)F)c3)nnc21
– | < 100 nM | – | CN1CCOc2c1c(NCCc1cccnc1)nn1c(-c3cccc(OC(F)(F)F)c3)nnc21
